Data as given in patent publication US9732063B2, “Kinase inhibitors” (RESPIVERT LIMITED, priority 2012, dated 2017).
pIC50: −log10 of the molar value. Like-named read-outs stand apart in the source and are kept apart here.

Key:
[1] = system: PBMCs; assay: LPS-induced TNFα/IL-8 release in PBMC cells; type: cell-based; conditions: Homo sapiens, read-out: IC50 Values for Inhibition of Cytokine Release PBMCs IL-8
Procedure, shortened: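 Healthy-donor PBMCs, isolated by density gradient, were pretreated with compound for 2 h and then stimulated with 1 ng/mL E. coli O111:B4 LPS for 24 h at 37 °C, 5% CO2. Supernatant IL-8 and TNFα were quantified by sandwich ELISA.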

[2] = system: HT29 cells; assay: IL-1β-induced IL-8 release in HT29 cells; type: cell-based; conditions: Homo sapiens, HT-29, read-out: IC50 Values for Inhibition of Cytokine Release HT29 cells IL-8
Procedure: HT29 cells, a human colon adenocarcinoma cell line, are plated in a 96 well plate (24 hrs) and pre-treated with compounds at the desired concentration for 2 hours before addition of 5 ng/mL of IL-1β (Abcam) for 24 hours. Supernatants are harvested for IL-8 quantification by Sandwich ELISA (Duo-set, R&D System). The IC50 is determined from the dose response curve.

[3] = system: TNBS-induced colitis; conditions: for LP inflammation / Ulcer grade: oral gavage BID, conducted over 2 days, mice; for inflammatory cell infiltrate in the reticular and laminar propria zone / ulcer grade and epithelial repair compared to the vehicle control: dosed orally at either 1 or 5 mg/kg
Procedure: On Day 0 of the study TNBS (200 μL) is administered intra-colonically via a plastic catheter followed by BID dosing of the vehicle, reference or test compound for 2 or 4 days. During the study animals are weighed every day and stool observations are made and recorded as a score, based on stool consistency. At the time of sacrifice on Day 2 (or Day 4) the large intestine is removed and the length and weight recorded. Sections of the colon are taken for either MPO analysis to determine neutrophil infiltration or for histopathology involving scoring to determine disease severity.

[4] = system: PBMCs; assay: IL-2 and IFN gamma release in CD3/CD28 stimulated PBMC cells; type: cell-based; conditions: Homo sapiens
Procedure, shortened: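 They were cultured with compound for 3 days. IL-2 and IFN-γ in supernatants were quantified by sandwich ELISA, and IC50 was derived from the dose-response curve.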

[5] = target: c-Src (Homo sapiens (Human), UniProt P12931); assay: c-Src enzyme inhibition (Z-LYTE FRET); type: biochemical
Sequence of c-Src (P12931 whole entry, looked up): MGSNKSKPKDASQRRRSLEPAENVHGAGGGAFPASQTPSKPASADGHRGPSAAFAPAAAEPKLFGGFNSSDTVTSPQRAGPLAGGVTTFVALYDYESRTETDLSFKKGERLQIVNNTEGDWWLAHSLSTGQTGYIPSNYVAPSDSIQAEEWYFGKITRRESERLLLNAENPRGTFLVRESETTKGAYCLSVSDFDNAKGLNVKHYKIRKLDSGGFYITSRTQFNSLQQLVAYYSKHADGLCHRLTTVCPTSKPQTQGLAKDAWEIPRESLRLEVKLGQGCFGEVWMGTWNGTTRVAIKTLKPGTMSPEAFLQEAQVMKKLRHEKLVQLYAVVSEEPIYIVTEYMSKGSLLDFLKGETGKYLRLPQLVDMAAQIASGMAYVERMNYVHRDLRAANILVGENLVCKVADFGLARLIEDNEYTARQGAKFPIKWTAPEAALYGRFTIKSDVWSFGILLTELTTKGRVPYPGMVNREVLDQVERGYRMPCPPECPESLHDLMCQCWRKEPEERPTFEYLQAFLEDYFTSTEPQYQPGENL
Procedure: (§1) The enzyme inhibitory activities of compounds disclosed herein are determined by FRET using synthetic peptides labelled with both donor and acceptor fluorophores (Z-LYTE, Invitrogen Ltd., Paisley, UK).
(§2) The relevant enzyme (3000 ng/mL or 2000 ng/mL respectively, 2.5 μL) is incubated with the test compound (either 4 μg/mL, 0.4 μg/mL, 0.04 μg/mL, or 0.004 μg/mL, 2.5 μL each) for 2 hr at RT. The FRET peptides (8 μM, 2.5 μL), and appropriate ATP solutions (2.5 μL, 800 μM for c-Src, and 60 μM ATP for Syk) are then added to the enzymes/compound mixtures and incubated for 1 hr. Development reagent (protease, 5 μL) is added for 1 hr prior to detection in a fluorescence microplate reader (Varioskan® Flash, ThermoFisher Scientific).
(§3) In all cases, the site-specific protease cleaves non-phosphorylated peptide only and eliminates the FRET signal. Phosphorylation levels of each reaction are calculated using the ratio of coumarin emission (donor) over fluorescein emission (acceptor), for which high ratios indicate high phosphorylation and low ratios indicate low phosphorylation levels.

[6] = target: p38 MAPKα (Homo sapiens (Human), UniProt Q16539); assay: p38 MAPKα enzyme inhibition (Z-LYTE FRET, Method 2); type: biochemical
Sequence of p38 MAPKα (Q16539 whole entry): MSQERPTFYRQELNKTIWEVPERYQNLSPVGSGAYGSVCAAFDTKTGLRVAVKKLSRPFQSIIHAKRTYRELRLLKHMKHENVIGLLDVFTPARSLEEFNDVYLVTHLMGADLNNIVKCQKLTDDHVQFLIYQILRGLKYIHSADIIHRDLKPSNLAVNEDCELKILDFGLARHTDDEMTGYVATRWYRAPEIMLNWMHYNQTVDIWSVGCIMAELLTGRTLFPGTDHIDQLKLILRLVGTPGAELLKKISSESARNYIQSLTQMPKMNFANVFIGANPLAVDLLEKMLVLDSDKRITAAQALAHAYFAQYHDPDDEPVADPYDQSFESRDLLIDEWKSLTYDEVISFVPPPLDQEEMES
Procedure: as §1
The inhibitory activities of test compounds against the p38 MAPKα isoform (MAPK14: Invitrogen), are evaluated indirectly by determining the level of activation/phosphorylation of the down-stream molecule, MAPKAP-K2. The p38 MAPKα protein (80 ng/mL, 2.5 μL) is mixed with the test compound (2.5 μL of either 4 μg/mL, 0.4 μg/mL, 0.04 μg/mL or 0.004 μg/mL) for 2 hr at RT. […] The mixture is incubated for 1 hr at RT. Development reagent (protease, 5 μL) is added for 1 hr prior to detection in a fluorescence microplate reader (Varioskan® Flash, ThermoFisher Scientific).
as §3

[7] = target: Syk (Homo sapiens (Human), UniProt P43405); assay: Syk enzyme inhibition (Z-LYTE FRET); type: biochemical
Procedure: as §1, §2, §3

[8] = target: GSK3α (Homo sapiens (Human), UniProt P49840); assay: GSK 3α enzyme inhibition (Z-LYTE FRET, Method 2); type: biochemical
Sequence of GSK3α (P49840 whole entry): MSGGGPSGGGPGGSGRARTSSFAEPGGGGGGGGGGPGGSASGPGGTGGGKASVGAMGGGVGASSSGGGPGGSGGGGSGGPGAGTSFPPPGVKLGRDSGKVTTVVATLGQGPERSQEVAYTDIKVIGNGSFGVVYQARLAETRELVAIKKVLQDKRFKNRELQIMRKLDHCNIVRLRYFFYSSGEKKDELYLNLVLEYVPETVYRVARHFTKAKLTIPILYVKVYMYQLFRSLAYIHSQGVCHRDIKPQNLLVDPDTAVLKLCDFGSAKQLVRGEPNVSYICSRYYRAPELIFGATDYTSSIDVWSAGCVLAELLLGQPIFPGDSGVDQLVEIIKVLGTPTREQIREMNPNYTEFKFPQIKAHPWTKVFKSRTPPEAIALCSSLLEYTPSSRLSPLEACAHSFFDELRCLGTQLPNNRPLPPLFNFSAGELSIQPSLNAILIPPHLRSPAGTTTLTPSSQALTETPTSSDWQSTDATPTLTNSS
Procedure, shortened: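 Z-LYTE FRET: GSK3α preincubated with compound 2 h at RT, then FRET peptide and ATP added (stocks 8 μM and 40 μM) for 1 h, followed by 1 h protease development. Compound stocks 4–0.004 μg/mL; phosphorylation from coumarin/fluorescein emission ratio.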

[9] = system: d-U937 cells; assay: LPS-induced TNFα/IL-8 release in d-U937 cells; type: cell-based; conditions: Homo sapiens
Procedure: Cells are pre-incubated with final concentrations of test compound for 2 hr and are then stimulated with 0.1 μg/mL of LPS (from E. coli: O111:B4, Sigma) for 4 hr. The supernatant is collected for determination of TNFα and IL-8 concentrations by sandwich ELISA (Duo-set, R&D systems). […] The relative 50% effective concentration (REC50) is determined from the resultant concentration-response curve. The inhibition of IL-8 production is calculated at each concentration of test compound by comparison with vehicle control.

[10] = read-out: IC50 Values for Inhibition of Cytokine Release PBMCs IL-2
[11] = read-out: IC50 Values for Inhibition of Cytokine Release PBMCs IFNγ
[12] = dU937, read-out: IC50 Values for Inhibition of Cytokine Release dU937 cells TNFα
[13] = dU937, read-out: IC50 Values for Inhibition of Cytokine Release dU937 cells IL-8

Row | Structure (SMILES) | pIC50 [1] | pIC50 [2] | LP inflammation ([3]; 1 mg/kg) | Ulcer grade ([3]; 1 mg/kg) | LP inflammation ([3]; 5 mg/kg) | Ulcer grade ([3]; 5 mg/kg) | inflammatory cell infiltrate in the reticular and laminar propria zone [3] | ulcer grade and epithelial repair compared to the vehicle control [3] | pIC50 [4, 10] | pIC50 [5] | pIC50 [6] | pIC50 [7] | pIC50 [8] | pIC50 [4, 11] | pIC50 [9, 12] | pIC50 [9, 13]
1 | COc1cc(Nc2nccc(Oc3ccc(NC(=O)Nc4cc(C(C)C)nn4-c4ccc(C)cc4)c4ccccc34)n2)cc(S(=O)(=O)C2CC2)c1 [Example 18, 1-(4-((2-((3-(Cyclopropylsulfonyl)-5-methoxyphenyl)amino)pyrimidin-4-yl)oxy)naphthalen-1-yl)-3-(3-isopropyl-1-(p-tolyl)-1H-pyrazol-5-yl)urea] | 8.68 | 8.21 | 2.8 ± 0.4 | 3.3 ± 0.4 | 2.6 ± 0.3 | 3.0 ± 0.5 | marked reduction | marked improvements | 7.07 | 7.57 | 6.99 | 6.45 | 5.54 | – | – | –
2 | COc1cc(Nc2nccc(Oc3ccc(NC(=O)Nc4cc(C(C)(C)C)nn4-c4ccc(C)cc4)c4ccccc34)n2)cc(OCCCN2CCOCC2)c1 [Example 49, 1-(3-(tert-Butyl)-1-(p-tolyl)-1H-pyrazol-5-yl)-3-(4-((2-((3-methoxy-5-(3-morpholino-propoxy)phenyl)amino)pyrimidin-4-yl)oxy)naphthalen-1-yl)urea] | 8.72 | 8.64 | – | – | – | – | – | – | 7.26 | 7.64 | 6.76 | 7.70 | 5.14 | 8.92 | – | –
3 | COc1ccc(-n2nc(C(C)(C)C)cc2NC(=O)Nc2ccc(Oc3ccnc(Nc4cccc(OS(C)(=O)=O)c4)n3)c3ccccc23)cn1 [Example 3, 3-(4-((4-(3-(3-(tert-Butyl)-1-(6-methoxypyridin-3-yl)-1H-pyrazol-5-yl)ureido)naphthalen-1-yl)oxy)pyrimidin-2-yl)amino)phenyl methanesulfonate] | 8.82 | 8.66 | – | – | – | – | – | – | 8.00 | – | 7.55 | 7.18 | 5.60 | 8.92 | 9.52 | –
4 | COc1cc(Nc2nccc(Oc3ccc(NC(=O)Nc4cc(C(C)C)nn4-c4ccc(C)cc4)c4ccccc34)n2)cc(SCCO)c1 [Example 22] | 8.64 | 8.29 | 2.6 ± 0.3 | 2.8 ± 0.4 | 3.8 ± 0.3 | 3.7 ± 0.4 | marked reduction | marked improvements | 7.51 | 7.33 | 6.94 | 6.87 | – | – | – | –
5 | COc1cc(Nc2nccc(Oc3ccc(NC(=O)Nc4cc(C(C)(C)C)nn4-c4ccc(C)cc4)c(Cl)c3Cl)n2)cc(OCCOCCOCCO)c1 [Example 71, 1-(3-(tert-Butyl)-1-(p-tolyl)-1H-pyrazol-5-yl)-3-(2,3-dichloro-4-((2-((3-(2-(2-(2-hydroxyethoxyl)ethoxy)ethoxy)-5-methoxyphenyl)amino)pyrimidin-4-yl)oxy)phenyl)urea] | 8.74 | – | – | – | – | – | – | – | 7.22 | 7.72 | 6.13 | 7.64 | 5.11 | 8.96 | 9.00 | 8.89
6 | Cc1ccc(-n2nc(C(C)C)cc2NC(=O)Nc2ccc(Oc3ccnc(Nc4cccc(N=S(C)(C)=O)c4)n3)c3ccccc23)cc1 [Example 14] | 8.62 | 8.10 | – | – | – | – | – | – | – | – | – | – | – | – | – | –
7 | COc1cc(Nc2nccc(Oc3ccc(NC(=O)Nc4cc(C(C)(C)C)nn4-c4ccc(C)cc4)c4ccccc34)n2)cc(OCCOCCOCCO)c1 [Example 62, 1-(3-(tert-Butyl)-1-(P-tolyl)-1H-pyrazol-5-yl)-3-(4-((2-((3-(2-(2-(2-hydroxyethoxy)ethoxy)ethoxy)-5-methoxyphenyl)amino)pyrimidin-4-yl)oxy)naphthalen-1-yl)urea] | 8.82 | 8.60 | – | – | – | – | – | – | 7.28 | 8.40 | 7.02 | 8.22 | – | 8.68 | – | –
8 | COCCOCCOCCOc1cc(Nc2nccc(Oc3ccc(NC(=O)Nc4cc(C(C)(C)C)nn4-c4ccc(C)cc4)c(Cl)c3Cl)n2)cc(OC)c1 [Example 53, 1-(3-(tert-Butyl)-1-(p-tolyl)-1H-pyrazol-5-yl)-3-(2,3-dichloro-4-((2-((3-methoxy-5-(2-(2-(2-methoxyethoxyl)ethoxy)ethoxy)phenyl)amino)pyrimidin-4-yl)oxy)phenyl)urea] | 8.42 | 8.62 | – | – | – | – | – | – | 6.88 | 7.64 | 6.09 | 7.25 | < 5.00 | 8.68 | – | –
9 | COc1cc(Nc2nccc(Oc3ccc(NC(=O)Nc4cc(C(C)C)nn4-c4ccc(C)cc4)c4ccccc34)n2)cc(OS(C)(=O)=O)c1 [Example 12, 3-((4-((4-(3-(3-Isopropyl-1-(p-tolyl)-1H-pyrazol-5-yl)ureido)naphthalen-1-yl)oxy)pyrimidin-2-yl)amino)-5-methoxyphenyl methanesulfonate] | 8.55 | 8.37 | – | – | – | – | – | – | 7.61 | 7.41 | 6.37 | 6.62 | – | 8.33 | 9.40 | –
10 | COc1cc(Nc2nccc(Oc3ccc(NC(=O)Nc4cc(C(C)(C)C)nn4-c4ccc(OC)nc4)c4ccccc34)n2)cc(S(=O)(=O)C2CC2)c1 [Example 61, 1-(3-(tert-Butyl)-1-(6-methoxypyridin-3-yl)-1H-pyrazol-5-yl)-3-(4-((2-((3-(cyclopropylsulfonyl)-5-methoxyphenyl)amino)pyrimidin-4-yl)oxy)naphthalen-1-yl)urea] | 8.70 | 8.32 | – | – | – | – | – | – | 7.37 | 7.14 | 6.52 | – | 5.42 | 8.72 | – | –
11 | COCCOCCOCCOc1cc(Nc2nccc(Oc3ccc(NC(=O)Nc4cc(C(C)(C)C)nn4-c4ccc(N(C)C)cc4)c4ccccc34)n2)cc(OC)c1 [Example 63, 1-(3-(tert-Butyl)-1-(4-(dimethylamino)phenyl)-1H-pyrazol-5-yl)-3-(4-((2-((3-methoxy-5-(2-(2-(2-methoxyethoxy)ethoxy)ethoxy)phenyl)amino)pyrimidin-4-yl)oxy)naphthalen-1-yl)urea] | 8.70 | 8.70 | – | – | – | – | – | – | 7.12 | 7.89 | 6.73 | – | 5.32 | 8.82 | 9.40 | 9.22
12 | COc1cc(Nc2nccc(Oc3ccc(NC(=O)Nc4cc(C(C)(C)C)nn4-c4ccc(C)cc4)c4ccccc34)n2)cc(SCCO)c1 [Example 55, 1-(3-(tert-Butyl)-1-(p-tolyl)-1H-pyrazol-5-yl)-3-(4-((2-((3-((2-hydroxyethyl)thio)-5-methoxyphenyl)amino)pyrimidin-4-yl)oxy)naphthalen-1-yl)urea] | 8.70 | 8.62 | – | – | – | – | – | – | 7.43 | – | 6.70 | 7.38 | 5.91 | 8.70 | – | –
